Entries after “also recorded” stand apart in the source; their conditions may differ.
How the values were obtained:
[1] = system: lean mice; assay: Leptin sensitivity: overnight food intake after acute Withaferin A and leptin injection, lean mice; assay type: in vivo, mouse
Protocol: (§1) Therefore is it possible that Withaferin A exerts the anti-obesity effects through increasing the leptin sensitivity in the brains of the HFD-fed obese mice. To test this hypothesis, leptin was administered to Withaferin A or vehicle treated HFD-fed obese animals. To avoid any possible leptin sensitizing effect of weight loss or decreased food intake created by Withaferin A administration, leptin injections were carried out upon acute Withaferin A treatment. Lean and HFD-fed obese mice were divided into four groups: 1) DMSO+saline, 2) DMSO+leptin, 3) Withaferin A+saline, and 4) Withaferin A+leptin (n=6 per group). The mice were injected (i.p.) with 1.5 mg/kg Withaferin A or vehicle (DMSO) one hour before dark cycle (day zero). 24 hours later, the second and final injection of DMSO or Withaferin A was administered. 30 minutes prior to dark cycle, mice received a single i.p. injection of leptin (1 mg/kg for HFD mice, dissolved in saline; 5 mg/kg for lean mice), or saline. Over night food intakes were recorded (HFD, FIG. 4A; Chow FIG. 4B). […] In addition, HFD-fed obese mice were resistant to the food intake reducing effect of leptin unless they received Withaferin A (FIG. 4A).

[2] = system: HFD-fed mice; assay: Body composition by Dual-Emission X-ray Absorptiometry (DEXA); assay type: in vivo, mouse; conditions: i.p. 2 mg/kg, two weeks
Protocol: To analyze the change in body composition during Withaferin A treatment (i.p. 2 mg/kg), lean mass and fat mass of mice with Dual-Emission X-ray Absorptiometry (DEXA) were measured.

[3] = system: 10-week old lean mice on chow diet; assay: Withaferin A i.p. to lean mice on chow diet for three weeks; assay type: in vivo, mouse; conditions: 2 mg/kg i.p.
Protocol: Withaferin A was administered to 10-week old lean mice on chow diet at 2 mg/kg for three weeks by i.p. injections.

[4] = system: HFD-fed obese mice; assay: Insulin Tolerance Test (ITT); assay type: in vivo, mouse; conditions: 2 mg/kg i.p., day 16, insulin 1 IU/kg i.p.
Protocol: (§2) In order to analyze the effect of Withaferin A on glucose homeostasis, we performed Glucose Tolerance Test (GTT) and Insulin Tolerance Test (ITT) after chronic i.p. Withaferin A treatment (2 mg/kg). For GTT, mice were fasted overnight following one week of Withaferin A treatment and received an i.p. injection of D-glucose (1 g/kg) in the morning. For ITT, after 16 days of Withaferin A treatment, mice were fasted for 6 hours (from 8 a.m. to 2 p.m.) and recombinant human insulin (1 IU/kg from Eli Lilly) was injected intraperitoneally. In both procedures, blood glucose was measured from tail vein blood at 0, 15, 30, 60, 90 and 120 minutes after injection.

[5] = system: HFD-fed obese C57Bl/6J mice; assay: Withaferin A daily i.p. to HFD-fed obese mice for three weeks: body weight, food intake, fasting blood glucose; assay type: in vivo, mouse
Protocol: To investigate whether Withaferin A can act as an anti-obesity drug by increasing leptin sensitivity and reducing appetite, C57Bl/6J mice were placed on a high fat diet (HFD; Research Diets, D12451, 45 kcal % fat) feeding for 16 weeks. After establishment of obesity and leptin resistance, mice were administered Withaferin A (at 2 mg/kg, in 25 μl DMSO, once per day) and vehicle (DMSO, 25 n1) with intraperitoneal (i.p.) injection. The animals had free access to food and water unless otherwise stated. In all experiments, three days prior to drug administration, the animals went through an acclimation period where they were given DMSO (25 n1) to reduce the effect of stress created by i.p. injection.
Following three days acclimation, mice were administered Withaferin A daily i.p. injections at 2 mg/kg for three weeks in 25 μl of DMSO as vehicle, whereas the control group received the same volume of DMSO. […] At day 21 of the experiment, the 6-hour fasting blood glucose of mice was measured.

[6] = system: leptin receptor deficient (db/db) mice; assay: Withaferin A to leptin receptor deficient (db/db) mouse model of obesity; assay type: in vivo; conditions: 2 mg/kg once a day
Protocol: To explore whether Withaferin A's effect is leptin dependent, Withaferin A (2 mg/kg, once a day, in 2Sμ1 DMSO) was administered to leptin receptor deficient (db/db) mouse model of obesity.

[7] = system: HFD-fed obese mice; assay: Glucose Tolerance Test (GTT); assay type: in vivo, mouse; conditions: 2 mg/kg i.p., one week, D-glucose 1 g/kg i.p., vs vehicle
Protocol: as §2

[8] = system: HFD-fed obese mice; assay: Leptin sensitivity: overnight food intake after acute Withaferin A and leptin injection, HFD-fed obese mice; assay type: in vivo, mouse
Protocol: as §1

[9] = weight loss product rating; cited from earlier work

With CC1=C(CO)C(=O)O[C@@H]([C@@H](C)[C@H]2CC[C@H]3[C@@H]4C[C@H]5O[C@]56[C@@H](O)C=CC(=O)[C@]6(C)[C@H]4CC[C@]23C)C1 [Withaferin A] the “decrease in food intake upon leptin injection” value ([1]; lean mice, Withaferin A 1.5 mg/kg i.p. + leptin 5 mg/kg i.p., compared to vehicle treated non-leptin group) was “approximately 50%”, the “anorectic action of leptin” value ([1]; lean mice, Withaferin A 1.5 mg/kg i.p. before leptin 5 mg/kg) was “significantly potentiated” and the overnight food intake ([1]; lean mice, Withaferin A 1.5 mg/kg i.p. two injections, without leptin) was “did not change”. The fat percentage [2] was “decreased significantly”, the lean mass [2] was “did not change” and the blood glucose levels ([3]; after 3 weeks of treatment) was “not altered”. For the same compound, the body weight ([3]; three weeks) was “failed to induce bodyweight loss”, the food intake ([3]; three weeks) was “failed to induce bodyweight loss or suppress food intake” and the “insulin sensitivity (ITT)” value [4] was “improved insulin sensitivity”. For the same compound, the “6-hour fasting blood glucose” value ([5]; 2 mg/kg i.p. daily, day 21, 2 mg/kg) was “decreases blood glucose; also recorded: robust decrease”, the food intake ([5]; 2 mg/kg i.p. daily, three days average within first week) was “significantly decreased” and the body weight ([5]; 2 mg/kg i.p. once per day, three weeks, vs DMSO vehicle) was “significantly decreased”. The body weight [6] was “continued to increase similar to the vehicle treated group”, the food intake [6] was “did not show a decrease” and the blood glucose levels ([6]; end of 3-week treatment) was “tendency to decrease but did not reach statistically significant levels”. For the same compound, the “glucose homeostasis (AUC of GTT)” value [7] was “significantly improved”, the “anorectic action of leptin” value ([8]; HFD mice, Withaferin A 1.5 mg/kg i.p. before leptin 1 mg/kg) was “significantly potentiated” and the “decrease in food intake upon leptin injection” value ([8]; HFD-fed obese mice, Withaferin A 1.5 mg/kg i.p. + leptin 1 mg/kg i.p., compared to vehicle treated non-leptin group) was 75%. The overnight food intake ([8]; HFD-fed obese mice, Withaferin A 1.5 mg/kg i.p. alone, no exogenous leptin) was “decreased the food intake”.
For “leptin: peptide hormone, afferent signal in a negative feedback loop regulating food intake and body weight”, the overnight food intake ([1]; vehicle treated lean mice, leptin 5 mg/kg single i.p. injection) was “suppressed food intake” and the “food intake reducing effect of leptin” value ([8]; HFD-fed obese mice without Withaferin A, leptin 1 mg/kg single i.p. injection) was “resistant”.
In the case of Conjugated linoleic acid, the Effectiveness [9] is listed as “Possibly” and the Safety [9] is listed as “Possibly safe”.
In the case of [Cr] [Chromium], the Safety [9] is listed as “Likely safe”.
